What was measured:
Assay type in all cases: cell-based
BaF3_HER2WT cells = BaF3_HER2WT cells (Homo sapiens, UniProt P04626); assay: Cell growth inhibition assay (CellTiterGlo), BaF3_HER2WT; conditions: 3-day treatment, CellTiterGlo, read-out: Cell growth inhibition activity, HER2 WT
BaF3_HER2YVMA cells = BaF3_HER2YVMA cells (Homo sapiens, UniProt P04626, DUP772-775, cells depend on it); assay: Cell growth inhibition assay (CellTiterGlo), BaF3_HER2YVMA; conditions: 3-day treatment, CellTiterGlo, read-out: Cell growth inhibition activity, HER2 - YVMA
Chain of BaF3_HER2YVMA cells (P04626 with tags, fused parts or gaps DUP772-775): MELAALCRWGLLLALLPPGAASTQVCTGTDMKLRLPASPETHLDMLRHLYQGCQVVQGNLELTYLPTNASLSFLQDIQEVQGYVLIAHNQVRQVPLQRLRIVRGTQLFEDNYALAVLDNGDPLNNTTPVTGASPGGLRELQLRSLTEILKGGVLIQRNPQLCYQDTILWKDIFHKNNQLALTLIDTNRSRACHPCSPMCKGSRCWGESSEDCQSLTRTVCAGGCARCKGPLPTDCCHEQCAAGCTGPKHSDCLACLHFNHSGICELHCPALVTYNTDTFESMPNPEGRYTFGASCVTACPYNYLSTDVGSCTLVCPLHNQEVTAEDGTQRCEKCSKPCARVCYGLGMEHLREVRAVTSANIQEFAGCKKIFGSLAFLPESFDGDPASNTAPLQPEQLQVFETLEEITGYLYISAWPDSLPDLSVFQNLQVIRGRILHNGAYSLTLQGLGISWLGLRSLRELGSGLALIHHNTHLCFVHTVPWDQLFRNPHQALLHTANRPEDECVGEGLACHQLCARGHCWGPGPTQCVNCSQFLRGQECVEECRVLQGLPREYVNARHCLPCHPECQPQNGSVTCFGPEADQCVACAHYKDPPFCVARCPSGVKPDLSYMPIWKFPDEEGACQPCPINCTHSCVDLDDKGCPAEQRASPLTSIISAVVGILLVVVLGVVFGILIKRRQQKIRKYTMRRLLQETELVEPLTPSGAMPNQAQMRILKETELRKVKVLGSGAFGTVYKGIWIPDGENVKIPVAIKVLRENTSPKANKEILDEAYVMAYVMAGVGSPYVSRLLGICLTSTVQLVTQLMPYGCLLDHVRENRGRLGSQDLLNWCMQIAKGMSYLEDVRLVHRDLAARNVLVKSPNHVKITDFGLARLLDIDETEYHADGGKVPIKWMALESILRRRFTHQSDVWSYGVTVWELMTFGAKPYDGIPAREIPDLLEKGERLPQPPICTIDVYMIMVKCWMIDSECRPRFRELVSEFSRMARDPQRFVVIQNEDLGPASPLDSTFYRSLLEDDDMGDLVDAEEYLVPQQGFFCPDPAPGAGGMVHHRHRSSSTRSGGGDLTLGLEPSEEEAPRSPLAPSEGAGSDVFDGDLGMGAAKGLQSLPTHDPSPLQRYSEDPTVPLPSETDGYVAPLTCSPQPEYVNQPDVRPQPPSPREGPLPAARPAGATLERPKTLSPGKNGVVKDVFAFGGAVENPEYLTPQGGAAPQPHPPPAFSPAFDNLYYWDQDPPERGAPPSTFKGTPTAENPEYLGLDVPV

BaF3_EGFRWT cells = BaF3_EGFRWT cells (Homo sapiens, UniProt P00533); assay: Cell growth inhibition assay (CellTiterGlo), BaF3_EGFRWT; conditions: 3-day treatment, CellTiterGlo, read-out: Cell growth inhibition activity, EGFR WT
Chain of BaF3_EGFRWT cells (P00533 whole entry, change not shown): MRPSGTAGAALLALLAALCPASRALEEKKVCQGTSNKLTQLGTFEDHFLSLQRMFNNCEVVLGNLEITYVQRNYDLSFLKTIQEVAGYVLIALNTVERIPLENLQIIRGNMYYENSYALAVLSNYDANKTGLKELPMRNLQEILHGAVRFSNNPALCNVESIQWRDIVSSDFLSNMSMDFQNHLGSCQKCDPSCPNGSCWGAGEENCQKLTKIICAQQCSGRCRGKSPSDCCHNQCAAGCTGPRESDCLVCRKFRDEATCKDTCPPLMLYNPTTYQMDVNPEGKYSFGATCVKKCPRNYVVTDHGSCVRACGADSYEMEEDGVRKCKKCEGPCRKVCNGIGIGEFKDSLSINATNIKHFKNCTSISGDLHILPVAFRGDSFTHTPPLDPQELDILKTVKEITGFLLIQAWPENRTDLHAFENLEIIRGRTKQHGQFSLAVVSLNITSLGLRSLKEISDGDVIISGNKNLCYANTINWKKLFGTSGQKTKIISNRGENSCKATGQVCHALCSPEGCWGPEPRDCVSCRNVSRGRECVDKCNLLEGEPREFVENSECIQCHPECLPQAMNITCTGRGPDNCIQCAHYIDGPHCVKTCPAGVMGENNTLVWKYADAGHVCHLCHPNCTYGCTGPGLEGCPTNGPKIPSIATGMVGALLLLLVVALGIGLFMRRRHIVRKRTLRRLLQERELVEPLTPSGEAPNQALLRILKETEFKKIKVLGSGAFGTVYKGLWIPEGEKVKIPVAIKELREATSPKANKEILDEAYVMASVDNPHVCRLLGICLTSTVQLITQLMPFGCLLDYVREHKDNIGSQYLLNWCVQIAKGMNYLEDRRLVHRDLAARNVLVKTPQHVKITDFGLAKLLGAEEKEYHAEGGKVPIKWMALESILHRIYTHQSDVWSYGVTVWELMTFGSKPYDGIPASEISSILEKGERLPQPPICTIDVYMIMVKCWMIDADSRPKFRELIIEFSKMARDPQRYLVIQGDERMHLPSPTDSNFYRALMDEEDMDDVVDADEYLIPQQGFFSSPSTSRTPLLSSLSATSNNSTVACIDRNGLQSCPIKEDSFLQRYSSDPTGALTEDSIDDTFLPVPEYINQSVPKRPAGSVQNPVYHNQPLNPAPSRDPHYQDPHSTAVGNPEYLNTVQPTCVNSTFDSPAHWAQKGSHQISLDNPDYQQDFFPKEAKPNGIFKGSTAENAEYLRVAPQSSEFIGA

Chain of BaF3_HER2WT cells (P04626 whole entry, change not shown): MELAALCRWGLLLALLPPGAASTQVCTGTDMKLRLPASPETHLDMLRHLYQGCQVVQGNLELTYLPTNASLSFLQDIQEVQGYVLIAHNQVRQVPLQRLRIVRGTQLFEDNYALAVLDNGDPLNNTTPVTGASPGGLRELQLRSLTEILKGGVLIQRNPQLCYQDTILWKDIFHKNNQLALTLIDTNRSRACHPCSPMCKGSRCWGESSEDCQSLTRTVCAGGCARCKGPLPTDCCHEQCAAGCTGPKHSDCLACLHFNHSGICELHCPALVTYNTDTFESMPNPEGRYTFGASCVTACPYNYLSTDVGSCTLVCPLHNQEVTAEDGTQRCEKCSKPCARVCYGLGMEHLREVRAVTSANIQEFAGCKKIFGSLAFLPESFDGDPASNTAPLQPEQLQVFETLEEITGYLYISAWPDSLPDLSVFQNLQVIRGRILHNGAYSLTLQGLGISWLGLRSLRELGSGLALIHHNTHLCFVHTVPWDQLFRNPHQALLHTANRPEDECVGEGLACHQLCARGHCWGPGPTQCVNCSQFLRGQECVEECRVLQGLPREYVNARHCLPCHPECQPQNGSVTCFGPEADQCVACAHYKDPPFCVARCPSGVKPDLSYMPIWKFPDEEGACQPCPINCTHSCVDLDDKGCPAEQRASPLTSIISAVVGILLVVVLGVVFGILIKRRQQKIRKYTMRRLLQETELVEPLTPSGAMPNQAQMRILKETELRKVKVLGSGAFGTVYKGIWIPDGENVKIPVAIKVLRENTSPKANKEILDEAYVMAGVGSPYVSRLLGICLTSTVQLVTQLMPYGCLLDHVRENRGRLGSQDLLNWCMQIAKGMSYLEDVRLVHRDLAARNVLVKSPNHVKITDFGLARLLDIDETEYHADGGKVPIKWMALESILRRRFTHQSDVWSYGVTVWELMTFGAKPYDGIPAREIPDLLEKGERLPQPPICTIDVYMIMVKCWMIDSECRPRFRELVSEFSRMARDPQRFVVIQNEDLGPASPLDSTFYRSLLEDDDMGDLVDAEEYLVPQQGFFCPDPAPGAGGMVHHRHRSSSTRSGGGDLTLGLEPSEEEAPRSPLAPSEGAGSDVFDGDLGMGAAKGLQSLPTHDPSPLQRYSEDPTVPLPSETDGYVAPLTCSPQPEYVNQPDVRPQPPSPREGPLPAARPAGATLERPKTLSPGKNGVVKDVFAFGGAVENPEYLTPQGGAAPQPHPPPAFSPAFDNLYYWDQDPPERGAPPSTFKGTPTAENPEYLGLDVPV

Compound | GI50 (BaF3_HER2WT cells) | GI50 (BaF3_HER2YVMA cells) | GI50 (BaF3_EGFRWT cells)
Cc1cc(Nc2ncnn3ccc(C4CN(C(=O)/C=C/CN(C)C)C4)c23)ccc1Oc1ccn2cnnc2c1 [Example 134, (E)-1-(3-(4-((4-([1,2,4]triazolo[4,3-a]pyridin-7-yloxy)-3-methylphenyl)amino)pyrrolo[2,1-f][1,2,4]triazin-5-yl)azetidin-1-yl)-4-(dimethylamino)but-2-en-1-one] | 200 to 500 nM | 1500 to 5000 nM | 1500 to 5000 nM
C=CC(=O)N1C[C@H]2C[C@@H]1C[C@@H]2c1ccn2ncnc(Nc3ccc(Oc4ccn5ncnc5c4)c(C)c3)c12 [Example 141, 1-[(1S,4S,5S)-5-{4-[(3-methyl-4-{[1,2,4]triazolo[1,5-a]pyridin-7-yloxy}phenyl)amino]pyrrolo[2,1-f][1,2,4]triazin-5-yl}-2-azabicyclo[2.2.1]heptan-2-yl]prop-2-en-1-one] | 200 to 500 nM | 500 to 1500 nM | 1500 to 5000 nM
Cc1cc(Nc2ncnn3ccc(C4CCN(C(=O)/C=C/C(=O)O)CC4)c23)ccc1Oc1ccn2ncnc2c1 [Example 142, (E)-4-(4-(4-((4-([1,2,4]triazolo[1,5-a]pyridin-7-yloxy)-3-methylphenyl)amino)pyrrolo[2,1-f][1,2,4]triazin-5-yl)piperidin-1-yl)-4-oxobut-2-enoic acid] | 1500 to 5000 nM | 1500 to 5000 nM | 1500 to 5000 nM
Cc1cc(Nc2ncnn3ccc(C4CCN(C(=O)/C=C/CN)CC4)c23)ccc1Oc1ccn2ncnc2c1 [Example 150, (E)-1-(4-(4-((4-([1,2,4]triazolo[1,5-a]pyridin-7-yloxy)-3-methylphenyl)amino)pyrrolo[2,1-f][1,2,4]triazin-5-yl)piperidin-1-yl)-4-aminobut-2-en-1-one] | 500 to 1500 nM | 1500 to 5000 nM | 1500 to 5000 nM
CNC/C=C/C(=O)N1CC(c2ccn3ncnc(Nc4ccc(Oc5ccc6c(c5)ncn6C)c(C)c4)c23)C1 [Example 153, (E)-1-(3-(4-((3-methyl-4-((1-methyl-1H-benzo[d]imidazol-5-yl)oxy)phenyl)amino)pyrrolo[2,1-f][1,2,4]triazin-5-yl)azetidin-1-yl)-4-(methylamino)but-2-en-1-one] | 1500 to 5000 nM | 1500 to 5000 nM | 1500 to 5000 nM
Cc1cc(Nc2ncnn3ccc(C4CCN(C(=O)/C=C/CN5CC(F)C5)CC4)c23)ccc1Oc1ccc2c(c1)ncn2C [Example 162, (E)-4-(3-fluoroazetidin-1-yl)-1-(4-(4-((3-methyl-4-((1-methyl-1H-benzo[d]imidazol-5-yl)oxy)phenyl)amino)pyrrolo[2,1-f][1,2,4]triazin-5-yl)piperidin-1-yl)but-2-en-1-one] | 200 to 500 nM | 500 to 1500 nM | 1500 to 5000 nM
Cc1cc(Nc2ncnn3ccc(C4CCN(C(=O)/C=C/CN5CC(F)C5)CC4)c23)ccc1Oc1ccn2ncnc2c1 [Example 163, (E)-1-(4-(4-((4-([1,2,4]triazolo[1,5-a]pyridin-7-yloxy)-3-methylphenyl)amino)pyrrolo[2,1-f][1,2,4]triazin-5-yl)piperidin-1-yl)-4-(3-fluoroazetidin-1-yl)but-2-en-1-one] | < 200 nM | < 200 nM | 1500 to 5000 nM
Cc1cc(Nc2ncnn3ccc(C4CCN(C(=O)/C=C/CN5CCC(F)C5)CC4)c23)ccc1Oc1ccn2ncnc2c1 (stereo not drawn) [Example 164, (E)-1-(4-(4-((4-([1,2,4]triazolo[1,5-a]pyridin-7-yloxy)-3-methylphenyl)amino)pyrrolo[2,1-f][1,2,4]triazin-5-yl)piperidin-1-yl)-4-(3-fluoropyrrolidin-1-yl)but-2-en-1-one] | < 200 nM | < 200 nM | 1500 to 5000 nM
CO[C@H]1CN(C/C=C/C(=O)N2CC(c3ccn4ncnc(Nc5ccc(Oc6ccc7c(c6)ncn7C)c(C)c5)c34)C2)C[C@H]1OC [Example 165, (E)-4-((3R,4S)-3,4-dimethoxypyrrolidin-1-yl)-1-(3-(4-((3-methyl-4-((1-methyl-1H-benzo[d]imidazol-5-yl)oxy)phenyl)amino)pyrrolo[2,1-f][1,2,4]triazin-5-yl)azetidin-1-yl)but-2-en-1-one] | < 200 nM | < 200 nM | 1500 to 5000 nM
CO[C@@H]1CN(C/C=C/C(=O)N2CC(c3ccn4ncnc(Nc5ccc(Oc6ccc7c(c6)ncn7C)c(C)c5)c34)C2)C[C@H]1OC [Example 166, (E)-4-((3R,4R)-3,4-dimethoxypyrrolidin-1-yl)-1-(3-(4-((3-methyl-4-((1-methyl-1H-benzo[d]imidazol-5-yl)oxy)phenyl)amino)pyrrolo[2,1-f][1,2,4]triazin-5-yl)azetidin-1-yl)but-2-en-1-one] | < 200 nM | < 200 nM | 1500 to 5000 nM
CO[C@H]1CN(C/C=C/C(=O)N2CCC(c3ccn4ncnc(Nc5ccc(Oc6ccc7c(c6)ncn7C)c(C)c5)c34)CC2)C[C@H]1OC [Example 167, (E)-4-((3R,4S)-3,4-dimethoxypyrrolidin-1-yl)-1-(4-(4-((3-methyl-4-((1-methyl-1H-benzo[d]imidazol-5-yl)oxy)phenyl)amino)pyrrolo[2,1-f][1,2,4]triazin-5-yl)piperidin-1-yl)but-2-en-1-one] | < 200 nM | < 200 nM | 1500 to 5000 nM
CO[C@@H]1CN(C/C=C/C(=O)N2CCC(c3ccn4ncnc(Nc5ccc(Oc6ccc7c(c6)ncn7C)c(C)c5)c34)CC2)C[C@H]1OC [Example 168, (E)-4-((3R,4R)-3,4-dimethoxypyrrolidin-1-yl)-1-(4-(4-((3-methyl-4-((1-methyl-1H-benzo[d]imidazol-5-yl)oxy)phenyl)amino)pyrrolo[2,1-f][1,2,4]triazin-5-yl)piperidin-1-yl)but-2-en-1-one] | < 200 nM | < 200 nM | 1500 to 5000 nM

Continued, values first:

GI50 (BaF3_HER2WT cells) | GI50 (BaF3_HER2YVMA cells) | GI50 (BaF3_EGFRWT cells) | Compound
< 200 nM | < 200 nM | 1500 to 5000 nM | Cc1cc(Nc2ncnn3ccc(C4CCN(C(=O)/C=C/CN(C)C)CC4)c23)ccc1Oc1ccc2c(c1)ncn2C [Example 133, (E)-4-(dimethylamino)-1-(4-(4-((3-methyl-4-((1-methyl-1H-benzo[d]234midazole-5-yl)oxy)phenyl)amino)pyrrolo[2,1-f][1,2,4]triazin-5-yl)piperidin-1-yl)but-2-en-1-one]
< 200 nM | < 200 nM | 1500 to 5000 nM | CNC/C=C/C(=O)N1CC(c2ccn3ncnc(Nc4ccc(Oc5ccn6ncnc6c5)c(C)c4)c23)C1 [Example 151, (E)-1-(3-(4-((4-([1,2,4]triazolo[1,5-a]pyridin-7-yloxy)-3-methylphenyl)amino)pyrrolo[2,1-f][1,2,4]triazin-5-yl)azetidin-1-yl)-4-(methylamino)but-2-en-1-one]
< 200 nM | < 200 nM | 1500 to 5000 nM | Cc1cc(Nc2ncnn3cc(F)c(C4CCN(C(=O)/C=C/CN(C)C)CC4)c23)ccc1Oc1ccn2ncnc2c1 [Example 152, (E)-1-(4-(4-((4-([1,2,4]triazolo[1,5-a]pyridin-7-yloxy)-3-methylphenyl)amino)-6-fluoropyrrolo[2,1-f][1,2,4]triazin-5-yl)piperidin-1-yl)-4-(dimethylamino)but-2-en-1-one]
< 200 nM | < 200 nM | 1500 to 5000 nM | Cc1cc(Nc2ncnn3ccc(C4CCN(C(=O)/C=C/CO)CC4)c23)ccc1Oc1ccn2ncnc2c1 [Example 154, (E)-1-(4-(4-((4-([1,2,4]triazolo[1,5-a]pyridin-7-yloxy)-3-methylphenyl)amino)pyrrolo[2,1-f][1,2,4]triazin-5-yl)piperidin-1-yl)-4-hydroxybut-2-en-1-one]
< 200 nM | < 200 nM | 1500 to 5000 nM | Cc1cc(Nc2ncnn3ccc(C4CN(C(=O)/C=C/CN(C)C)C4)c23)ccc1Oc1ccn2ccnc2c1 [Example 157, (E)-4-(dimethylamino)-1-(3-(4-((4-(imidazo[1,2-a]pyridin-7-yloxy)-3-methylphenyl)amino)pyrrolo[2,1-f][1,2,4]triazin-5-yl)azetidin-1-yl)but-2-en-1-one]
< 200 nM | < 200 nM | 500 to 1500 nM | Cc1cc(Nc2ncnn3ccc(C4CN(C(=O)/C=C/CN(C)C)C4)c23)ccc1Oc1cc2ncnn2cn1 [Example 158, (E)-1-(3-(4-((4-([1,2,4]triazolo[1,5-c]pyrimidin-7-yloxy)-3-methylphenyl)amino)pyrrolo[2,1-f][1,2,4]triazin-5-yl)azetidin-1-yl)-4-(dimethylamino)but-2-en-1-one]
< 200 nM | < 200 nM | 1500 to 5000 nM | Cc1cc(Nc2ncnn3ccc(C4CN(C(=O)/C=C/C56CCCN5CCC6)C4)c23)ccc1Oc1ccn2ncnc2c1 [Example 159, (E)-1-(3-(4-((4-([1,2,4]triazolo[1,5-a]pyridin-7-yloxy)-3-methylphenyl)amino)pyrrolo[2,1-f][1,2,4]triazin-5-yl)azetidin-1-yl)-3-(tetrahydro-1H-pyrrolizin-7a(5H)-yl)prop-2-en-1-one]
< 200 nM | < 200 nM | 1500 to 5000 nM | Cc1cc(Nc2ncnn3ccc(C4CN(C(=O)/C=C\C56CCCN5CCC6)C4)c23)ccc1Oc1ccn2ncnc2c1 [Example 160, (Z)-1-(3-(4-((4-([1,2,4]triazolo[1,5-a]pyridin-7-yloxy)-3-methylphenyl)amino)pyrrolo[2,1-f][1,2,4]triazin-5-yl)azetidin-1-yl)-3-(tetrahydro-1H-pyrrolizin-7a(5H)-yl)prop-2-en-1-one]
< 200 nM | < 200 nM | 1500 to 5000 nM | Cc1cc(Nc2ncnn3ccc(C4CN(C(=O)/C=C/CN5CC(F)C5)C4)c23)ccc1Oc1ccc2c(c1)ncn2C [Example 161, (E)-4-(3-fluoroazetidin-1-yl)-1-(3-(4-((3-methyl-4-((1-methyl-1H-benzo[d]imidazol-5-yl)oxy)phenyl)amino)pyrrolo[2,1-f][1,2,4]triazin-5-yl)azetidin-1-yl)but-2-en-1-one]

From patent publication US20240132521A1, “COMPOUNDS AND METHODS FOR MODULATING HER2” (Iambic Therapeutics, Inc., priority 2022, published 2024)
